Here are results for 27 compounds from patent US9133158B2, “Bicyclic dihydroisoquinoline-1-one derivatives” (Hoffmann-La Roche Inc., priority 2011, dated 2015).

One assay has as its target T1, human CYP11B2 (Homo sapiens, UniProt P19099).
T1 construct: expressed in transfected cells
T1 sequence (P19099 25-503): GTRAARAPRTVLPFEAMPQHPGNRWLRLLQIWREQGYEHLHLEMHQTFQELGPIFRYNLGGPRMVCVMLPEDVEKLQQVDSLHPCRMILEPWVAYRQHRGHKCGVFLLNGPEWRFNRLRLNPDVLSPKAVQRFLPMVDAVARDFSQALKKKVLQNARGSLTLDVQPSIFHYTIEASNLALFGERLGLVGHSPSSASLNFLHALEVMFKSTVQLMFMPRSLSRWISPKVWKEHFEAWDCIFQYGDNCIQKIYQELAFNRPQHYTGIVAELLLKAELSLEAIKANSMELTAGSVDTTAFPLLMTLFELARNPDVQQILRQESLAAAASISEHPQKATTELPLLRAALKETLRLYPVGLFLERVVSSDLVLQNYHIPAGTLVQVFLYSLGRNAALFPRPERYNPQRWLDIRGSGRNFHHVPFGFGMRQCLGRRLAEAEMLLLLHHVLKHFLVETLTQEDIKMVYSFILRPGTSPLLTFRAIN
The assay can be described thus: G-402 cellular enzyme assay, human CYP11B2 (aldosterone release, HTRF). The following applies: G-402 cells, 1 μM Deoxycorticosterone. It counts as cell-based. In short, it runs like this:
(§1)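 Supernatant steroid product measured by HTRF (aldosterone for CYP11B2, cortisol for CYP11B1) after 16 h exposure of stably transfected G-402 cells to compound. Substrates were 1 μM deoxycorticosterone and 1 μM deoxycortisol, respectively; EC50 derived from a four-parameter MMF curve fit.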
Background: TR-FRET usually uses a lanthanide donor and a delayed reading to cut background.

For the next assay, the target named is T2, human CYP11B1 (Homo sapiens, UniProt P15538).
T2 construct: expressed in transfected cells
T2 sequence (P15538 25-503): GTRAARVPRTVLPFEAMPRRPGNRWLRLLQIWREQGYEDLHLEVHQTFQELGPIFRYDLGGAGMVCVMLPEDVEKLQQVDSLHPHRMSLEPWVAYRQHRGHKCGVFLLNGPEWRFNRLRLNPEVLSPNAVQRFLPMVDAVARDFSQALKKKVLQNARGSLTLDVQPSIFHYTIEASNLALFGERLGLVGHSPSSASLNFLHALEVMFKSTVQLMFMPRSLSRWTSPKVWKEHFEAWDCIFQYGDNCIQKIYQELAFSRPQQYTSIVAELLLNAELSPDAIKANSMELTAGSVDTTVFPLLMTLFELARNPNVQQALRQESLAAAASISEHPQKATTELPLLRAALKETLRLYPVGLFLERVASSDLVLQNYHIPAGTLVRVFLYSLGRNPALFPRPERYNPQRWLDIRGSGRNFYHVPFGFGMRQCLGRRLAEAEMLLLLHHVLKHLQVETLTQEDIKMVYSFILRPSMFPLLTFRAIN
The assay can be described thus: G-402 cellular enzyme assay, human CYP11B1 (cortisol release, HTRF). It counts as cell-based. The following applies: G-402 cells, 1 μM Deoxycortisol. The essentials:
as §1

For orientation: EC50 means the concentration needed to bring the measured effect to its halfway point. In the case of `O=C(c1cncc(N2CCc3cc(Cl)ccc3C2=O)c1)N1CCCC1` [Example 42, 6-Chloro-2-[5-(pyrrolidine-1-carbonyl)-pyridin-3-yl]-3,4-dihydro-2H-isoquinolin-1-one], the EC50 at human CYP11B2 is 327 nM; on human CYP11B1, 7860 nM.
On the same counts, the results for `CCC(=O)NC1CCCc2c1cncc2N1CCc2cc(Cl)ccc2C1=O` (single isomer, unassigned) [Example 328, N-((R or S)-6-Chloro-1-oxo-3,4,5′,6′,7′,8′-hexahydro-1H-[2,4′]biisoquinolinyl-8′-yl)-propionamide] are 173 nM and 18400 nM.
On the same counts, the results for `CC1(C)c2cc(Cl)ccc2C(=O)N1c1cncc(CN2CCCS2(=O)=O)c1` [Example 409, 5-Chloro-2-[5-(1,1-dioxo-1λ6-isothiazolidin-2-ylmethyl)-pyridin-3-yl]-3,3-dimethyl-2,3-dihydro-isoindol-1-one] are 6.9 nM and 429 nM.
On the same counts, the results for `O=C1c2ccc(Cl)cc2CCN1c1cncc(CNc2cccc(Cl)c2)c1` [Example 261, 6-Chloro-2-{5-[(3-chloro-phenylamino)-methyl]-pyridin-3-yl}-3,4-dihydro-2H-isoquinolin-1-one] are 26.7 nM and 105 nM.
With `CCS(=O)(=O)NCc1cncc(N2C(=O)c3ccc(F)cc3C2(C)C)c1` [Example 388, Ethanesulfonic acid [5-(6-fluoro-1,1-dimethyl-3-oxo-1,3-dihydro-isoindol-2-yl)-pyridin-3-ylmethyl]-amide], the figures for the EC50 on human CYP11B2 and at human CYP11B1 were 272 nM and 3970 nM, respectively.
For `O=C1c2ccc(Cl)cc2C2(CC2)N1c1cncc(F)c1` [Example 290, 6′-Chloro-2′-(5-fluoropyridin-3-yl)spiro[cyclo-propane-1,1′-isoindol]-3′(2′H)-one], in that order: 101 nM and 3910 nM.
On the same counts, the results for `CC1(C)CN(c2cncc(F)c2)C(=O)c2ccc(Cl)cc21` [Example 104, 6-Chloro-2-(5-fluoro-pyridin-3-yl)-4,4-dimethyl-3,4-dihydro-2H-isoquinolin-1-one] are 2340 nM and 59800 nM.
For `CC1(C)c2nc(Cl)ccc2C(=O)N1c1cncc(CNc2cc[nH]n2)c1` [Example 383, 2-Chloro-7,7-dimethyl-6-{5-[(1H-pyrazol-3-ylamino)-methyl]-pyridin-3-yl}-6,7-dihydro-pyrrolo[3,4-b]pyridin-5-one], in that order: 21 nM and 771 nM.
For the compound `O=C1c2ccc(Cl)cc2CN1c1cncc2c1CCC[C@@H]2O` [Example 340, 5-Chloro-2-((S)-8-hydroxy-5,6,7,8-tetrahydro-isoquinolin-4-yl)-2,3-dihydro-isoindol-1-one], the concentration giving a half-maximal response (EC50) at human CYP11B2 worked out at 88.3 nM; at human CYP11B1, 14200 nM.
Regarding `O=C1CCCN1c1cncc(N2CCc3cc(Cl)ccc3C2=O)c1` [Example 26, 6-Chloro-2-[5-(2-oxo-pyrrolidin-1-yl)-pyridin-3-yl]-3,4-dihydro-2H-isoquinolin-1-one], the figures for the EC50 at human CYP11B2 and at human CYP11B1 were 321 nM and 8150 nM, respectively.
For `CC(=O)N[C@@H]1CCCc2c1cncc2N1C(=O)c2ccc(Cl)cc2[C@@H]1C` (single isomer, unassigned) [Example 366, N-[(R or S)-4-((S or R)-5-Chloro-3-methyl-1-oxo-1,3-dihydro-isoindol-2-yl)-5,6,7,8-tetrahydro-isoquinolin-8-yl]-acetamide], in that order: 4.4 nM and 82 nM.
On the same counts, the results for `CCC(=O)NCc1cncc(N2C(=O)c3ccc(Cl)cc3C23CC3)c1` [Example 396, N-{[5-(6′-Chloro-3′-oxospiro [cyclopropane-1,1′-isoindol]-2′(3′H)-yl)pyridin-3-yl]methyl} propanamide] are 207 nM and 5250 nM.
For `COCc1ccncc1N1CCc2cc(Cl)ccc2C1=O` [Example 69, 6-Chloro-2-(4-methoxymethyl-pyridin-3-yl)-3,4-dihydro-2H-isoquinolin-1-one], in that order: 154 nM and 7540 nM.
As for `O=C1c2ccc(Cl)cc2CCN1c1cncc(Cc2cccc(F)c2F)c1` [Example 210], the results for the EC50 on human CYP11B2 and on human CYP11B1 were 18.6 nM and 130 nM, respectively.
On the same counts, the results for `CC(C)(O)c1c(F)cncc1N1CCc2cc(Cl)ccc2C1=O` [Example 70, 6-Chloro-2-[5-fluoro-4-(1-hydroxy-1-methyl-ethyl)-pyridin-3-yl]-3,4-dihydro-2H-isoquinolin-1-one] are 460 nM and 392 nM.
For `Cc1cncc(N2CCc3cc(Cl)ccc3C2=O)n1` [Example 38, 6-Chloro-2-(6-methyl-pyrazin-2-yl)-3,4-dihydro-2H-isoquinolin-1-one], in that order: 1070 nM and 8390 nM.
`Cc1ccncc1N1C(=O)c2ccc(Cl)cc2C1C` (stereo not drawn) [Example 121, 5-Chloro-3-methyl-2-(4-methyl-pyridin-3-yl)-2,3-dihydro-isoindol-1-one]: the EC50 on human CYP11B2 stood at 7.1 nM; at human CYP11B1, 39 nM.
For `CC(=O)N1CC[C@@H](Oc2cncc(N3C(=O)c4ccc(Cl)cc4C3(C)C)c2)C1` [Example 442, 2-[5-((R)-1-Acetyl-pyrrolidin-3-yloxy)-pyridin-3-yl]-5-chloro-3,3-dimethyl-2,3-dihydro-isoindol-1-one], in that order: 5.6 nM and 427 nM.
For `O=C1c2ccc(Cl)cc2CCN1c1cncc(O)c1` [Example 252, 6-Chloro-2-(5-hydroxy-pyridin-3-yl)-3,4-dihydro-2H-isoquinolin-1-one], in that order: 272 nM and 9760 nM.
For `CCC(=O)N[C@@H]1CCc2c1cncc2N1C(=O)c2ccc(Cl)cc2[C@H]1C` (single isomer, unassigned) [Example 376, N-[(R or S)-4-((R or S)-5-Chloro-3-methyl-1-oxo-1,3-dihydro-isoindol-2-yl)-6,7-dihydro-5H-[2]pyrindin-7-yl]-propionamide], in that order: 26 nM and 7960 nM.
In the case of `COC(C)c1c(F)cncc1N1CCc2cc(Cl)ccc2C1=O` (stereo not drawn) [Example 76, 6-Chloro-2-[5-fluoro-4-(1-methoxy-ethyl)-pyridin-3-yl]-3,4-dihydro-2H-isoquinolin-1-one], the EC50 at human CYP11B2 worked out at 492 nM; on human CYP11B1, 13800 nM.
Take `O=C1c2ccc(Cl)cc2CCN1c1cncc(CN2CCC(F)(F)C2)c1` [Example 169, 6-Chloro-2-[5-(3,3-difluoro-pyrrolidin-1-ylmethyl)-pyridin-3-yl]-3,4-dihydro-2H-isoquinolin-1-one]: the concentration giving a half-maximal response (EC50) on human CYP11B2 was determined as 5.2 nM; at human CYP11B1, 38.1 nM.
On the same counts, the results for `CC[C@H]1c2cc(Cl)ccc2C(=O)N1c1cncc2c1CCC[C@H]2NS(C)(=O)=O` (single isomer, unassigned) [Example 350, N-[(R or S)-4-((S or R)-5-Chloro-3-ethyl-1-oxo-1,3-dihydro-isoindol-2-yl)-5,6,7,8-tetrahydro-isoquinolin-8-yl]-methanesulfonamide] are 59.4 nM and 3680 nM.
Regarding `CC[C@@H]1c2cc(Cl)ccc2C(=O)N1c1cncc2c1CCC[C@@H]2NS(C)(=O)=O` (single isomer, unassigned) [Example 349, N-[(S or R)-4-((R or S)-5-Chloro-3-ethyl-1-oxo-1,3-dihydro-isoindol-2-yl)-5,6,7,8-tetrahydro-isoquinolin-8-yl]-methanesulfonamide], the EC50 is 982 nM on human CYP11B2 and 15100 nM on human CYP11B1.
Consider `COc1ccc2c(n1)C(C)(C)N(c1cncc(OC(F)F)c1)C2=O` [Example 295, 6-(5-Difluoromethoxy-pyridin-3-yl)-2-methoxy-7,7-dimethyl-6,7-dihydro-pyrrolo[3,4-b] pyridin-5-one], for which the figures for the EC50 at human CYP11B2 and at human CYP11B1 were 48.8 nM and 849 nM, respectively.
For `O=C1c2ccc(Cl)cc2C2(CC2)N1c1cncc(CNc2cc[nH]n2)c1` [Example 386, 6′-Chloro-2′-{5-[(1H-pyrazol-3-ylamino)methyl]pyridin-3-yl}spiro [cyclopropane-1,1′-isoindol]-3′(2′H)-one], in that order: 6 nM and 418 nM.
On the same counts, the results for `O=C1c2ccc(Cl)cc2C2(CC2)N1c1cccnc1` [Example 296, 6′-Chloro-2′-(pyridin-3-yl)spiro[cyclopropane-1,1′-isoindol]-3′(2′H)-one] are 132 nM and 4500 nM.
